According to paper PMC3428910 (Bioorganic & medicinal chemistry letters, 2006):

Target: T1, human glutathione reductase (hGR) (Homo sapiens, UniProt P00390)
T1 sequence (P00390 44-522): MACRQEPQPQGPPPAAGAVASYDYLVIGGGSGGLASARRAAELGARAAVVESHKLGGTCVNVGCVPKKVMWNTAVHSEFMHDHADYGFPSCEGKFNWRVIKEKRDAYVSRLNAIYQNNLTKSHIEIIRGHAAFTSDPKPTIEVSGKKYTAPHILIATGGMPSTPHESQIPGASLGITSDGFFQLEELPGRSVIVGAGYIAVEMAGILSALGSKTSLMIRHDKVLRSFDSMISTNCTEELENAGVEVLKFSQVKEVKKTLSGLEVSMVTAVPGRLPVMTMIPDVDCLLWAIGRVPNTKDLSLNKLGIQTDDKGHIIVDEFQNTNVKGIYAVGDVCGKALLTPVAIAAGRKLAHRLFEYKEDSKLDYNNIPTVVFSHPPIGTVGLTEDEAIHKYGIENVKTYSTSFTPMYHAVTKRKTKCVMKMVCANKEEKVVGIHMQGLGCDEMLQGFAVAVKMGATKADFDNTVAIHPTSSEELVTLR
Assay: Human glutathione reductase inhibition
Assay type: biochemical
Conditions: GR IC50/TR IC50

CC(C)(C)c1cc(CN2CCCCCC2)cc(C(C)(C)C)c1O [Compound 7c]
Selectivity for TR: >4
